In publication doi:10.1101/2020.07.01.182642v1 (biorxiv, 2020):
Each block holds one compound with its values, some of them ahead of it.

What was measured:
Conditions in all cases: binder
[1] = biological target: CSNK1E (Homo sapiens, UniProt P49674)
[2] = biological target: DYRK1A (Homo sapiens, UniProt Q13627)
[3] = biological target: PIM1 (Homo sapiens, UniProt P11309)
[4] = biological target: PTK6 (Homo sapiens, UniProt Q13882)
[5] = biological target: CLK4 (Homo sapiens, UniProt Q9HAZ1)
[6] = biological target: BMPR2 (Homo sapiens, UniProt Q13873)
[7] = biological target: BMPR1A (Homo sapiens, UniProt P36894)
[8] = biological target: STK40 (Homo sapiens, UniProt Q8N2I9)
[9] = biological target: CAMK2D (Homo sapiens, UniProt Q13557)
[10] = biological target: PRKX (Homo sapiens, UniProt P51817)
[11] = biological target: TEC (Homo sapiens, UniProt P42680)
[12] = biological target: DDR1 (Homo sapiens, UniProt Q08345)
[13] = biological target: NLK (Homo sapiens, UniProt Q9UBE8)
[14] = biological target: MAPK7 (Homo sapiens, UniProt Q13164)
[15] = biological target: CAMK2G (Homo sapiens, UniProt Q13555)
[16] = biological target: ABL2 (Homo sapiens, UniProt P42684)
[17] = biological target: SRPK1 (Homo sapiens, UniProt Q96SB4)
[18] = biological target: PRKD2 (Homo sapiens, UniProt Q9BZL6)
[19] = biological target: PRKCZ (Homo sapiens, UniProt Q05513)
[20] = biological target: LATS1 (Homo sapiens, UniProt O95835)
[21] = biological target: CAMK4 (Homo sapiens, UniProt Q16566)
[22] = biological target: FGR (Homo sapiens, UniProt P09769)
[23] = biological target: TLK1 (Homo sapiens, UniProt Q9UKI8)
[24] = biological target: VRK3 (Homo sapiens, UniProt Q8IV63)
[25] = biological target: PRKACA (Homo sapiens, UniProt P17612)
[26] = biological target: CDKL3 (Homo sapiens, UniProt Q8IVW4)
[27] = biological target: SGK3 (Homo sapiens, UniProt Q96BR1)
[28] = biological target: LIMK1 (Homo sapiens, UniProt P53667)
[29] = biological target: IGF1R (Homo sapiens, UniProt P08069)
[30] = biological target: ERN2 (Homo sapiens, UniProt Q76MJ5)
[31] = biological target: MYO3A (Homo sapiens, UniProt Q8NEV4)

Chain of ABL2 (P42684 whole entry): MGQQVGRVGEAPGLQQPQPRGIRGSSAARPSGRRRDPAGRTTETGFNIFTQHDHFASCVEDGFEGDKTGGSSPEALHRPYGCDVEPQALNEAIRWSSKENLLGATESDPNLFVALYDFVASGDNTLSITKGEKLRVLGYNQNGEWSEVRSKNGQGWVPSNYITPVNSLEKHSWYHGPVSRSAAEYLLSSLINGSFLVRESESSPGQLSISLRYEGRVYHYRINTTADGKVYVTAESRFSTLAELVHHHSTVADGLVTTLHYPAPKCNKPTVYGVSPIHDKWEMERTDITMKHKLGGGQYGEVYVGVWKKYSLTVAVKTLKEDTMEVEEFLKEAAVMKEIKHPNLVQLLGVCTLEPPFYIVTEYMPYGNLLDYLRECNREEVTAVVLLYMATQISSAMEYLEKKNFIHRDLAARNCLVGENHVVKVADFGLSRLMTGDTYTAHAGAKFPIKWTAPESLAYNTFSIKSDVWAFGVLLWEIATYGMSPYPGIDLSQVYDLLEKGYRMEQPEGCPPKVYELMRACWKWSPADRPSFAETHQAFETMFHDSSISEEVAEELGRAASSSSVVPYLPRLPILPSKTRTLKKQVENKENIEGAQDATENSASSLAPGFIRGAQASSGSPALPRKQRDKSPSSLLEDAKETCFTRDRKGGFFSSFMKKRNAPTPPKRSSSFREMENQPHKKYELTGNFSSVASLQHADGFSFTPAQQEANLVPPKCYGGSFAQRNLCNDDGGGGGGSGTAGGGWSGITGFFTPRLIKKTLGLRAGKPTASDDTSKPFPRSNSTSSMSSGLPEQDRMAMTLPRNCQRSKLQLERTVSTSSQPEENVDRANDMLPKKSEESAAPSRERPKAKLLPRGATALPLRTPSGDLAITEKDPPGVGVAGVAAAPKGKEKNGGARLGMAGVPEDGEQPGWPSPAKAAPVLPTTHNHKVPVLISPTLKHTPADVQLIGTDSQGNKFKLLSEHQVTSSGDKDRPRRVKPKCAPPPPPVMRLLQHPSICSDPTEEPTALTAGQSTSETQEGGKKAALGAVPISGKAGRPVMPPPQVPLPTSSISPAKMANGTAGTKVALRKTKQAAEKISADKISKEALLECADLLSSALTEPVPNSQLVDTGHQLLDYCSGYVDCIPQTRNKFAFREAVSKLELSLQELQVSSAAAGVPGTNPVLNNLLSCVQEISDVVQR
Chain of FGR (P09769 whole entry): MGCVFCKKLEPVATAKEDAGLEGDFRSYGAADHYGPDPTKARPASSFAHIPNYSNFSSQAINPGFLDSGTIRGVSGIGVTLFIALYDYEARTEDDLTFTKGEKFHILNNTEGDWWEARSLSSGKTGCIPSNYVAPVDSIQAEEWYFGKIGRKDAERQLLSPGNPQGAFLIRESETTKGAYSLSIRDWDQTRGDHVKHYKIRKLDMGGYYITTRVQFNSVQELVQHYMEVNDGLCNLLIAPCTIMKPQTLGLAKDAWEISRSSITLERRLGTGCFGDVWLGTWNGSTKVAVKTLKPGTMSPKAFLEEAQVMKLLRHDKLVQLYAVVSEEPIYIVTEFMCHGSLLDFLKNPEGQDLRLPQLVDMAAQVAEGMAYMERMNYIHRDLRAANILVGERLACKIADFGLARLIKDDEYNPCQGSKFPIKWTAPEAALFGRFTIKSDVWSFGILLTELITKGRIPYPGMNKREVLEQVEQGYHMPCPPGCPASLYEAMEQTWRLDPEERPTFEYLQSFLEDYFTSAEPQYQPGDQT
Chain of SRPK1 (Q96SB4 whole entry): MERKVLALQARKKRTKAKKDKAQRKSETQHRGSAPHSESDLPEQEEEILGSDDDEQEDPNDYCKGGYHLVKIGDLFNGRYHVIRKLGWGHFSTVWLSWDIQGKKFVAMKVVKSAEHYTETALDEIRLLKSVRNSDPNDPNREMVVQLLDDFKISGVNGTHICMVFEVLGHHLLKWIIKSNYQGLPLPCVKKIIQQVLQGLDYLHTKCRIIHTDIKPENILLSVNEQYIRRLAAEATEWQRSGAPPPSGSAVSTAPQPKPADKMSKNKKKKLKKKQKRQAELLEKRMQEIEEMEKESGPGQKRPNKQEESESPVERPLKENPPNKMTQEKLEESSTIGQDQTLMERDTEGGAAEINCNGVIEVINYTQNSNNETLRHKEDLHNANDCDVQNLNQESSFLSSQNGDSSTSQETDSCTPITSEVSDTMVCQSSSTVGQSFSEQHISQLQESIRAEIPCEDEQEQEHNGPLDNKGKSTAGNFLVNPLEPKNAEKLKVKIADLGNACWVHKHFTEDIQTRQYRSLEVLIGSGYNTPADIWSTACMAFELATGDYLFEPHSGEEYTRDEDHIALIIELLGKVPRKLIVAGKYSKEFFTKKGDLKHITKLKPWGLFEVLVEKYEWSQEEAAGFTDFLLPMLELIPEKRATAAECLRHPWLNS
Chain of DDR1 (Q08345 whole entry): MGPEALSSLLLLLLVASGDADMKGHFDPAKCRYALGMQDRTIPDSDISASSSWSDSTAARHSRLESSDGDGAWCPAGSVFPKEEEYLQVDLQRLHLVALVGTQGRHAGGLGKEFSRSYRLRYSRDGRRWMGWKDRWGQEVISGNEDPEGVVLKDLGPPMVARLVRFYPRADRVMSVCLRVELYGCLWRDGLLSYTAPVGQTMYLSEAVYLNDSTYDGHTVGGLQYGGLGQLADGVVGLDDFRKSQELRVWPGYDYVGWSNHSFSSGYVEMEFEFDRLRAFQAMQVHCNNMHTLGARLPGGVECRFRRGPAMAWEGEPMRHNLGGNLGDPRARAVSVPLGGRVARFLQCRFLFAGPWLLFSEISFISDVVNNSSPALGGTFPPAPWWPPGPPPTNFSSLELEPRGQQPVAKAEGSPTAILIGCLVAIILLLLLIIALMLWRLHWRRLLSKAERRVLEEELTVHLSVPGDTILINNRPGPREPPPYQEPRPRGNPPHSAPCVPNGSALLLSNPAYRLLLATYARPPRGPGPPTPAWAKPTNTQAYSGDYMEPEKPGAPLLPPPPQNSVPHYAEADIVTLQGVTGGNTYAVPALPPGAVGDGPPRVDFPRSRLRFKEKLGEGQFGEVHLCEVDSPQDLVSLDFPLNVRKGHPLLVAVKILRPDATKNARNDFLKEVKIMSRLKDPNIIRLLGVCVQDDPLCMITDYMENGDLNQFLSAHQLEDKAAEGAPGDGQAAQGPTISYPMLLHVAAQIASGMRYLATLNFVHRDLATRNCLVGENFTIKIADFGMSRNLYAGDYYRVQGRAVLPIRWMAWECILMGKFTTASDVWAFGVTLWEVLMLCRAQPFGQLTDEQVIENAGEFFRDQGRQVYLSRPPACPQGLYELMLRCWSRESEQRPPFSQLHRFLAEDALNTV
Chain of LATS1 (O95835 whole entry): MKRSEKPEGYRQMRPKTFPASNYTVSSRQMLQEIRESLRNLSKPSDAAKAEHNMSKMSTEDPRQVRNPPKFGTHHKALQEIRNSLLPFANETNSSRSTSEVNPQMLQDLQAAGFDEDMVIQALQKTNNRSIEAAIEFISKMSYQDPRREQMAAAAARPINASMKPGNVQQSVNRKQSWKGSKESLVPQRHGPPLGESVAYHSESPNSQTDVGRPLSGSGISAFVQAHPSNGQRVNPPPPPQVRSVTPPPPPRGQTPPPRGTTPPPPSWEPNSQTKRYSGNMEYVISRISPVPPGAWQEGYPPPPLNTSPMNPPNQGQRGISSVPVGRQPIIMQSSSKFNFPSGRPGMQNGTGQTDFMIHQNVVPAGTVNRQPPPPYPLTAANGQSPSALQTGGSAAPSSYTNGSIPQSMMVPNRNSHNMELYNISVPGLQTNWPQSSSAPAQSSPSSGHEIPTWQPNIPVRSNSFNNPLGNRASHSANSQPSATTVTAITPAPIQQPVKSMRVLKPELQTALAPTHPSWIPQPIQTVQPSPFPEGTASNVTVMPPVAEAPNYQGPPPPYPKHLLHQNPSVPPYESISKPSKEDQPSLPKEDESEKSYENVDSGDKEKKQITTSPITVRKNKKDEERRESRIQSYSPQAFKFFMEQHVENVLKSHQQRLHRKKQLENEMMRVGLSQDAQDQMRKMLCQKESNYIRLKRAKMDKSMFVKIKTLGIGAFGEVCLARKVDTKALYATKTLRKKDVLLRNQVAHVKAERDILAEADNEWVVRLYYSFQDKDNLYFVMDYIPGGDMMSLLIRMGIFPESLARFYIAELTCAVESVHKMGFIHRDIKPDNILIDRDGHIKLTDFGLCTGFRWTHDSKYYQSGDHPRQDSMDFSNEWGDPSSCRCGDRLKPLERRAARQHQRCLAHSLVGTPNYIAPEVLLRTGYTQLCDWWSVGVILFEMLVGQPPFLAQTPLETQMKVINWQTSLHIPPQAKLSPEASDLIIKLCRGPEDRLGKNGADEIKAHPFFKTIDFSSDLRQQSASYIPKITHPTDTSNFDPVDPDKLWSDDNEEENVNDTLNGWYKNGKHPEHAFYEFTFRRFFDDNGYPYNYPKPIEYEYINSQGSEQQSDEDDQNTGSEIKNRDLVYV
Chain of PIM1 (P11309 whole entry): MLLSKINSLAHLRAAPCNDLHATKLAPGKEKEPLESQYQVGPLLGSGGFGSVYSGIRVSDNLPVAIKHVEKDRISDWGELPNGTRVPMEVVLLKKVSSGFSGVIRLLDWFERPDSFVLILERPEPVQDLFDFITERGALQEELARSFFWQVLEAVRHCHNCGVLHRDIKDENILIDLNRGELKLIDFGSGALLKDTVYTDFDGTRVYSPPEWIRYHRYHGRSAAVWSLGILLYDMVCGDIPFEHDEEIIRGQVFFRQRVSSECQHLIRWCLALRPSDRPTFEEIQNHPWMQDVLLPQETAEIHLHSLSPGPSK

- ΔTm inhibitor 1 [1]: 4.4 °C
- ΔTm inhibitor 1 [2]: 3.6 °C
- ΔTm inhibitor 1 [3]: 6.3 °C
- ΔTm inhibitor 1 [4]: 0.4 °C
- ΔTm inhibitor 1 [5]: 8.5 °C
- ΔTm inhibitor 1 [6]: 7.8 °C
- ΔTm inhibitor 1 [7]: 10.9 °C
SMILES: CC(=O)c1cccc(-c2cnc3ccc(NCC4CC4)nn23)c1 [compound 1, K00135]

- ΔTm inhibitor 2 [8]: 0.0 °C
- ΔTm inhibitor 2 [9]: -0.6 °C
- ΔTm inhibitor 2 [10]: -0.2 °C
- ΔTm inhibitor 2 [11]: 1.0 °C
- ΔTm inhibitor 2 [12]: 0.4 °C
- ΔTm inhibitor 2 [13]: -0.2 °C
- ΔTm inhibitor 2 [14]: 0.2 °C
- ΔTm inhibitor 2 [15]: 0.1 °C
- ΔTm inhibitor 2 [16]: -0.5 °C
- ΔTm inhibitor 2 [17]: 0.0 °C
- ΔTm inhibitor 2 [18]: 0.7 °C
- ΔTm inhibitor 2 [19]: -0.2 °C
- ΔTm inhibitor 2 [20]: 0.1 °C
- ΔTm inhibitor 2 [21]: -0.2 °C
- ΔTm inhibitor 2 [22]: -0.2 °C
- ΔTm inhibitor 2 [23]: -0.1 °C
- ΔTm inhibitor 2 [24]: 0.5 °C
- ΔTm inhibitor 2 [25]: -0.2 °C
- ΔTm inhibitor 2 [26]: 0.1 °C
- ΔTm inhibitor 2 [27]: -0.1 °C
SMILES: CCN1/C(=C/C(C)=O)Sc2ccc(OC)cc21 [compound 2, TG003]

- ΔTm inhibitor 4 [28]: 0.5 °C
- ΔTm inhibitor 4 [29]: 0.2 °C
- ΔTm inhibitor 4 [30]: 0.4 °C
- ΔTm inhibitor 4 [31]: 0.2 °C
SMILES: Nc1nccc(-c2ccc3noc(-c4ccc(Cl)cc4)c3c2)n1 [compound 4, K00972]
